Values quoted from earlier work in patent US6413988B1, “Prucalopride oral solution” (Janssen Pharmaceutica N.V., priority 1999, dated 2002).

How the values were obtained:
[1] = target: 5-HT4 receptors (Homo sapiens, UniProt Q13639)
[2] = test system: colon
[3] = target: 5-HT2A receptors (Homo sapiens, UniProt P28223)
[4] = test system: 5-HT3 receptors

Sequence of 5-HT4 receptors (Q13639 whole entry): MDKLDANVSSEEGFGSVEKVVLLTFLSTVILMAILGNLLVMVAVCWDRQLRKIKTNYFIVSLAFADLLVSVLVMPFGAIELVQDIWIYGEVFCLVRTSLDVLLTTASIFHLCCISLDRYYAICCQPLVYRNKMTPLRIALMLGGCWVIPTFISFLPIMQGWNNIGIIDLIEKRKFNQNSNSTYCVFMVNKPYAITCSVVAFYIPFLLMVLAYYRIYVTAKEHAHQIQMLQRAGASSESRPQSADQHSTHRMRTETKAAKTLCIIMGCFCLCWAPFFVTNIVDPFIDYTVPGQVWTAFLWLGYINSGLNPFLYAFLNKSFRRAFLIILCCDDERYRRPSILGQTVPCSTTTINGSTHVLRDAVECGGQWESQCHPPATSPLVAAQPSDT
Sequence of 5-HT2A receptors (P28223 whole entry): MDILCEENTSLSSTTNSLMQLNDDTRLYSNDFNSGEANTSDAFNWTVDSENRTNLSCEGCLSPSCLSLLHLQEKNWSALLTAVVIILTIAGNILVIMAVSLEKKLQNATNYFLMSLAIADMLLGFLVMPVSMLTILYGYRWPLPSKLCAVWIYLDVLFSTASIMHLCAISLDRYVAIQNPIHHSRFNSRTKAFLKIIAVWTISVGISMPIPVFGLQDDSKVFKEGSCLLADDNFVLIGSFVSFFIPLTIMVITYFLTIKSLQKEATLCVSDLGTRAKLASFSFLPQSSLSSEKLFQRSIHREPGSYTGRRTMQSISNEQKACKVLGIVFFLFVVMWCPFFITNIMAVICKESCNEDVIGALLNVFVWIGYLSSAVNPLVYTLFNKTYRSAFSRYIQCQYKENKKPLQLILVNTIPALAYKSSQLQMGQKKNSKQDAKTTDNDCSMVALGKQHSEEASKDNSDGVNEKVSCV

agonist of 5-HT4 receptors [1]: potent and selective agonist | affinity for 5-HT2A receptors [3]: no affinity | affinity for 5-HT3 receptors [4]: no affinity
Compound: COCCCN1CCC(NC(=O)c2cc(Cl)c(N)c3c2OCC3)CC1 [Prucalopride, 4-amino-5-chloro-2,3-dihydro-N-[1-(3-methoxypropyl)-4-piperidinyl]-7-benzofuran-carboxamide]
colonic motility and defecation ([2]; in animals): stimulates colonic motility and defecation | giant contractions in the colon ([2]; propagated over the length of the colon as a peristaltic wave): induces giant contractions in the colon
